ChEMBL document CHEMBL2177034, “Inhibition of hypoxia inducible factor-2 transcription: isolation of active modulators from marine sponges” (J Nat Prod, 2012)
pEC50: −log10 of the molar value. The source made the active and inactive calls. The calls are words filed in the database; no cut-off is given here.

How the values were obtained:
[1] = target: T1, Endothelial PAS domain-containing protein 1 (Homo sapiens, UniProt Q99814); assay: Inhibition of HIF2alpha in human 786-0 cells expressing truncated HIF1alpha assessed as reduction in luciferase activity after 24 hrs by reporter gene assay; assay type: cell-based
[2] = target: T1, Endothelial PAS domain-containing protein 1; assay: Inhibition of HIF2alpha in human 786-0 cells assessed as reduction in CCND1 mRNA expression after 48 hrs by RT-PCR analysis; assay type: cell-based
[3] = Downregulation of GLUT1 mRNA expression in human SK-RC-28 cells after 48 hrs by RT-PCR analysis; assay type: functional, cell-based
[4] = Downregulation of HIF1alpha mRNA expression in human SK-RC-28 cells after 48 hrs by RT-PCR analysis; assay type: functional, cell-based
[5] = target: T1, Endothelial PAS domain-containing protein 1; assay: Inhibition of HIF2alpha in human RCC4 cells coexpressing HIF1alpha assessed as reduction in CCND1 mRNA expression after 48 hrs by RT-PCR analysis; assay type: cell-based
[6] = target: Hypoxia-inducible factor 1-alpha (Homo sapiens) (UniProt Q16665); assay: Inhibition of HIF1alpha in human RCC4 cells coexpressing HIF2alpha assessed as decrease in carbonic anhydrase 9 mRNA expression after 48 hrs by RT-PCR analysis; assay type: cell-based
786-0 [7] = assay: Downregulation of HIF2alpha mRNA expression in human 786-0 cells after 48 hrs by RT-PCR analysis; assay type: functional, cell-based
786-0 [8] = assay: Downregulation of HIF1alpha mRNA expression in human 786-0 cells after 48 hrs by RT-PCR analysis; assay type: functional, cell-based
[9] = Downregulation of TGFalpha mRNA expression in human SK-RC-28 cells after 48 hrs by RT-PCR analysis; assay type: functional, cell-based
[10] = Downregulation of HIF2alpha mRNA expression in human SK-RC-28 cells after 48 hrs by RT-PCR analysis; assay type: functional, cell-based
[11] = target: Hypoxia-inducible factor 1-alpha (Homo sapiens) (UniProt Q16665); assay: Inhibition of HIF1alpha in human SK-RC-28 cells assessed as reduction in carbonic anhydrase 9 expression after 48 hrs by RT-PCR analysis; assay type: cell-based
[12] = target: T1, Endothelial PAS domain-containing protein 1; assay: Inhibition of HIF2alpha in human RCC4 cells coexpressing HIF1alpha assessed as reduction in GLUT1 mRNA expression after 48 hrs by RT-PCR analysis; assay type: cell-based
[13] = target: T1, Endothelial PAS domain-containing protein 1; assay: Inhibition of HIF2alpha in human 786-0 cells assessed as reduction in GLUT1 mRNA expression after 48 hrs by RT-PCR analysis; assay type: cell-based
[14] = target: T1, Endothelial PAS domain-containing protein 1; assay: Inhibition of HIF2alpha in human 786-0 cells assessed as reduction in TGFalpha mRNA expression after 48 hrs by RT-PCR analysis; assay type: cell-based
[15] = Downregulation of HIF1alpha mRNA expression in human RCC4 cells after 48 hrs by RT-PCR analysis; assay type: functional, cell-based
[16] = Downregulation of CCND1 mRNA expression in human SK-RC-28 cells after 48 hrs by RT-PCR analysis; assay type: functional, cell-based
786-0 [17] = assay: Down regulation of carbonic anhydrase 9 expression in human 786-0 cells after 48 hrs by RT-PCR analysis; assay type: functional, cell-based
[18] = target: T1, Endothelial PAS domain-containing protein 1; assay: Inhibition of HIF2alpha in human RCC4 cells coexpressing HIF1alpha assessed as reduction in TGFalpha mRNA expression after 48 hrs by RT-PCR analysis; assay type: cell-based
[19] = target: Hypoxia inducible factors; HIF-1-alpha, HIF-2-alpha (Homo sapiens) (UniProt Q16665+Q99814); assay: Inhibition of HIF1alpha/2alpha in human RCC4 cells assessed as reduction in VEGFA mRNA expression after 48 hrs by RT-PCR analysis; assay type: cell-based
[20] = Downregulation of HIF2alpha mRNA expression in human RCC4 cells after 48 hrs by RT-PCR analysis; assay type: functional, cell-based
[21] = target: T1, Endothelial PAS domain-containing protein 1; assay: Inhibition of HIF2alpha in human 786-0 cells assessed as reduction in VEGFA after 48 hrs by RT-PCR analysis; assay type: cell-based
[22] = target: Hypoxia-inducible factor 1-alpha (Homo sapiens) (UniProt Q16665); assay: Inhibition of HIF1alpha in human SK-RC-28 cells assessed as reduction in VEGFA after 48 hrs by RT-PCR analysis; assay type: cell-based

T1 sequence (Q99814 whole entry, the tested form may be a part): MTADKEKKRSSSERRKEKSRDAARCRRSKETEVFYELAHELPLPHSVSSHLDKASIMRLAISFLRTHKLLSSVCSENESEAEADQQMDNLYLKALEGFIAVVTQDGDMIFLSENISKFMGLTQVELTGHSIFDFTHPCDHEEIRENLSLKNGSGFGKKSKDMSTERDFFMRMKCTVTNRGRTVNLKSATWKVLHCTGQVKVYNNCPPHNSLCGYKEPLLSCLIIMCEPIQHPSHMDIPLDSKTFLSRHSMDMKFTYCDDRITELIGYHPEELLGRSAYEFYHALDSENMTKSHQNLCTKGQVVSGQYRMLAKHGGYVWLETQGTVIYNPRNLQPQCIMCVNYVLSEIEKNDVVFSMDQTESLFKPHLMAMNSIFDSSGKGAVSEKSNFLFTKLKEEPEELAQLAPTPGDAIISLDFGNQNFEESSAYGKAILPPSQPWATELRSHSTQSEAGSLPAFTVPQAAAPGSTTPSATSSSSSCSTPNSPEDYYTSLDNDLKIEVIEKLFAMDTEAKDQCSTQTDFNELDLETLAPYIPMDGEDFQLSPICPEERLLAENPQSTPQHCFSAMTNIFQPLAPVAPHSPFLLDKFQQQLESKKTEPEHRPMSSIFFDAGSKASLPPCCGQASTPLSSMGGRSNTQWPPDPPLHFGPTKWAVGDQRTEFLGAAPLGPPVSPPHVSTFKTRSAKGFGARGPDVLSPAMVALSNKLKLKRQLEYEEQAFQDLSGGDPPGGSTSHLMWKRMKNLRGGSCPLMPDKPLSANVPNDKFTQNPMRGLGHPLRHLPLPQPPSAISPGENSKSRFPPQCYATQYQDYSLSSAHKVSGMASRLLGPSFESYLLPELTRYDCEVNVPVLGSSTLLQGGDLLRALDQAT
Sequence of Hypoxia-inducible factor 1-alpha (Homo sapiens) (Q16665 whole entry, looked up, the tested form may be a part): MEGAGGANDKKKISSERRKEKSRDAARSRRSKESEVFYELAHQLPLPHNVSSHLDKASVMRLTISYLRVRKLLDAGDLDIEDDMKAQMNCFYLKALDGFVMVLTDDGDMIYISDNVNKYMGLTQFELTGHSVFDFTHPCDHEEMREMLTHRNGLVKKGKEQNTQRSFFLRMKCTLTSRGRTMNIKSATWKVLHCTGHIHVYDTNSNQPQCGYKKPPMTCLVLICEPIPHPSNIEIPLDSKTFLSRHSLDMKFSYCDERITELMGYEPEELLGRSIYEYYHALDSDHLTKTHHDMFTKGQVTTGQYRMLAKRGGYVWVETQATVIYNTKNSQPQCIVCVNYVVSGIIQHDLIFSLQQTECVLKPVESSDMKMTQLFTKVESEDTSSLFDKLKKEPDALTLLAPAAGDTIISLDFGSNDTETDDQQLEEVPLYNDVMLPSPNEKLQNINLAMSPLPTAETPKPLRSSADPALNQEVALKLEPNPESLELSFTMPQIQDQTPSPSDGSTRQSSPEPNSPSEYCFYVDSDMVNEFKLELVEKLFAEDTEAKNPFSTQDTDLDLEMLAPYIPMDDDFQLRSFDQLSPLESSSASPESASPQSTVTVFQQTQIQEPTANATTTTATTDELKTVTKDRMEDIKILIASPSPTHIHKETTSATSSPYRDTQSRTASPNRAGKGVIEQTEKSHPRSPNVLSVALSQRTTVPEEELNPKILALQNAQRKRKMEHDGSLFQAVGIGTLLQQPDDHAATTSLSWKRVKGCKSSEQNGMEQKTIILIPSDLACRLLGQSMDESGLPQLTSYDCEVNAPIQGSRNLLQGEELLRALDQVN

For `COc1cc2ccnc3c2c(c1OC)NC=C3` [AAPTAMINE], the pEC50 [1] was under 4.00.
In the case of `C/C=C(/C)C(=O)OCc1nccc2c1C(=O)C(O)=C(C)C2=O`, the inhibition [2] was “inactive”, the Activity [3] was “inactive” and the Activity [4] was “inactive”. The inhibition [5] was “inactive”, the inhibition [6] was “inactive” and the Activity (786-0 [7]) was “inactive”. For the same molecule, the Activity (786-0 [8]) was “inactive”, the Activity [9] was “inactive” and the Activity [10] was “inactive”. The inhibition [11] was “inactive”, the inhibition [12] was “inactive” and the inhibition [13] was “inactive”. For the same molecule, the pEC50 [1] was under 4.00, the inhibition [14] was “inactive” and the Activity [15] was “inactive”. The Activity [16] was “inactive”, the Activity (786-0 [17]) was “inactive” and the inhibition [18] was “inactive”. For the same molecule, the inhibition [19] was “inactive”, the Activity [20] was “inactive” and the inhibition [21] was “inactive”. The inhibition [22] was “inactive”.
Molecule `COC1=C(C)C(=O)c2cc(=O)n(C)c(C)c2C1=O` [MIMOSAMYCIN] has a pEC50 [1] of under 4.00.
In the case of `CC(=O)O[C@@H]1OC=C2[C@@H](OC(C)=O)C[C@H]3[C@]4(C)CC[C@H]5C(C)(C)CCC[C@]5(C)[C@H]4C[C@@H](O)[C@]3(C)[C@H]21` [HETERONEMIN], the pEC50 [1] was 5.92.
`CC(=O)O[C@H]1C[C@H]2[C@@](C)(CC[C@H]3C(C)(C)CCC[C@@]32C=O)[C@@H]2CC=C(C(C)=O)[C@H](C=O)[C@@]12C` showed a pEC50 [1] of 5.38.
